According to ChEMBL document CHEMBL1150891, “Isolation of 1-carboxymethylnicotinic acid from the marine sponge anthosigmella cf. raromicrosclera As a cysteine protease inhibitor1” (J Nat Prod, 1998):

Biological target: T1, Papain (Carica papaya, UniProt P00784)
T1 sequence (P00784 whole entry): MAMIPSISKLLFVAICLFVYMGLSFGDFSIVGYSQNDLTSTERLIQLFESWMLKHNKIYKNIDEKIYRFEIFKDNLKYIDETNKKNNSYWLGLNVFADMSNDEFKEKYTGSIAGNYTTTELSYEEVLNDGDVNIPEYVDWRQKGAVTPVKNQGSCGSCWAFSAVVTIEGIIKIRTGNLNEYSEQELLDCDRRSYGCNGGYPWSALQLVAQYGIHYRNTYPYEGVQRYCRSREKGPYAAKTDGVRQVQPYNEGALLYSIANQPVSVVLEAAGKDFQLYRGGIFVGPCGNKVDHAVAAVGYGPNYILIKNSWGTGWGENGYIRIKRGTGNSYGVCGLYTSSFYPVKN
Assay: Inhibition of Carica papaya papain

O=C([O-])C[n+]1cccc(C(=O)O)c1
IC50: 442 µM
